# Entries after “also recorded” stand apart in the source; their conditions may differ. Square brackets hold non-standard residues; d marks the D form. Ends that are not written are not given here. Peptide text beside a SMILES is read from it.
# Assays:
# [1] = system: diet-induced obesity (DIO) mice; assay: In vivo fat homing (pCLE, Cellvizio); details: FITC-conjugated peptide, tail vein injection, obese mice
# Description: C57BL/6J mice at 3 weeks of age were purchased from Central Lab Animal Inc. (Korea). For the first two weeks, the mice were fed 50% normal diet and 50% rodent diet with 60 kcal % from fat. […] The mice became obese after week 14 (body weight>45 g).
# FITC conjugated ATS-9R (10 mg/ml) and FITC-9R (10 mg/ml) were diluted in PBS to a final concentration of 1.5 mg/ml and 100 μl of peptide was injected into obese mice by tail vein injection. Immediately after injection, peptide localization in vasculatures of different organs was observed by Cellvizio (Mauna Kea Technologies, France).
# In this example, in vivo experiments were conducted using diet-induced obesity (DIO) mice. FITC-ATS-R9 was administered to the obese mice by tail vein injection to observe the targeting of the ATS-R9 to adipose tissue. Tracking was visualized using probe-based confocal laser endomicroscopy (pCLE, Cellvizio).
# [2] = system: 3T3-L1 differentiated adipocytes; assay: In vitro cytotoxicity (MTT) assay; assay type: cell-based; details: adipocytes at day 10, 48 h after transfection
# Description: (§1) Cell viability was measured by MTT [3-(4,5-dimethylthiazol-2-yl)-2,5-diphenyltetrazolium bromide]assay.
# (§2) 3T3-L1 differentiated adipocytes were incubated in 24-well plates. The adipocytes (at day 10) were treated with oligo-peptoplexes prepared by luciferase plasmid DNA, plain DMEM medium, and ATS-9R at predetermined charge ratios. PEI polyplexes were used as the control.
# (§3) After 48 h of transfection, 50 μl of MTT reagent was added to 500 μl medium in each well and incubated for 3 h at 37° C. The culture media were removed and 500 μl dimethyl sulfoxide (DMSO) was added to each well and incubated for 20 min at room temperature. Absorbance was measured at 570 nm.
# (§4) 3T3-L1 differentiated adipocytes at day 10 were transfected with the oligo-peptoplexes. After 48 h of transfection, cell viability was analyzed by MTT assay (n=6).
# [3] = In vitro cytotoxicity (MTT) assay; assay type: cell-based; details: mouse, 3T3-L1 differentiated adipocytes (day 10); adipocytes at day 10, 48 h after transfection, charge ratio up to 9; read-out: cell viability
# Description: as §1, §2, §3, §4
# 3T3-L1 preadipocytes [4] = assay: Internalization of FITC-ATS-R9 into cells (confocal microscopy); assay type: cell-based
# Description: (§5) Cellmask Deep Red was purchased from Invitrogen and DAPI-Fluoromount-G was purchased from Southern Biotech. 3T3-L1 preadipocytes, H9c2, and HEK293 cells were grown and differentiated on coverslips placed in 6 well plates.
# (§6) After 24 h of seeding, the cells were treated with the FITC conjugated ATS-R9 (25 μg/ml) and incubated in a time-dependent manner that ranged from 15 min to 72 h.
# (§7) After incubation, culture media were replaced, and the cells were washed three times with PBS and fixed in 3.7% formaldehyde. The plasma membranes of the cells were stained with Cellmask Deep Red. The cells were washed again with PBS and mounted in the presence of DAPI to stain the nuclei. Images were captured with a Carl Zeiss confocal microscope.
# (§8) To monitor the degree of internalization of ATS-R9 into cells, mature adipocytes and preadipocytes were treated with FITC-labeled ATS-R9 (FITC-ATS-R9) and the delivery of the support to the cells was investigated.
# [5] = Zeta potential and size measurement (DLS); assay type: physicochemical
# Description: 5 μg of luciferase plasmid DNA (p-β-Luci), deionized water, and ATS-R9 (charge ratios: 0.5, 1, 3, 5, 7, and 9) were incubated for 30 min at room temperature to construct oligo-peptoplexes. The mean diameters and surface zeta potentials of the oligo-peptoplexes were measured using DLS equipped with a Zetasizer-Nano ZS (Malvern Instruments, UK).
# obese adipocytes = assay: Comparison of gene delivery ability (luciferase gene); assay type: cell-based
# Description: The ability of ATS-R9 to deliver luciferase gene to obese adipocytes was evaluated. PEI and lipofectamine were used as controls.
# Gene delivery efficacies before and after adipocyte differentiation were compared.
# Luciferase was used as a gene to be delivered and scrambled ATS was used as a fat-targeting sequence. The ability of (scrambled ATS)-R9 to deliver the gene to obese adipocytes was compared to that of ATS-R9.
# [6] = system: luciferase plasmid DNA (p-β-Luci); assay: Gel retardation assay; assay type: physicochemical; details: charge ratio of ≧3
# Description: 1 μg of luciferase plasmid DNA (p-β-Luci, Promega (USA)), deionized water, and ATS-R9 (charge ratios: 0.25, 0.5, 1, 3, 5, 7, and 9) were incubated for 30 min at room temperature to construct oligo-peptoplexes. The oligo-peptoplexes were subjected to electrophoresis under 0.5% TBE buffer solution in 0.8% agarose gel for 25 min (100 V). Naked DNA was used as a control. The DNA condensation efficiency of the ATS-R9 was compared with that of branched PEI (25 KDa, Sigma, USA).
# The condensation efficacy of ATS-R9 was compared with that of branched PEI (25 kDa).
# Oligo-peptoplexes were prepared with luciferase plasmid DNA (p-β-Luci), deionized water, and ATS-R9 or PEI with predetermined charge ratios and incubated for 30 min at room temperature.
# C57BL/6J obese mice = assay: In vivo internalization into adipose tissue and gene expression
# Description: FITC-conjugated ATS-R9 was administered to C57BL/6J obese mouse by tail vein injection. Rhodamine-conjugated lectin was injected to stain blood vessels.
# FITC-conjugated ATS-R9 was injected into C57BL/6J obese mice and fixed adipose tissue sections were incubated with biotin-conjugated anti-FITC antibody. Cy3-conjugated ExtrAvidin was used for signal amplification thereof. Images were observed using a multiphoton confocal laser scanning microscope.
# Finally, in vivo gene expression was confirmed. To this end, red fluorescence protein (RFP) expressing plasmid was concentrated by FITC-ATS-R9 and the oligo-peptoplexes were injected into C57BL/6J obese mice. Non-treated mice were used as controls. Images were observed using a multiphoton confocal laser scanning microscope.
# [7] = system: 3T3-L1 differentiated adipocytes; assay: In vitro transfection efficiency (luciferase assay); assay type: cell-based; details: charge ratio of 5, mature adipocytes at day 10, 72 h
# Description: A luciferase assay kit was purchased from Promega (USA). A DC protein assay kit and bovine serum albumin standard were purchased from Bio-Rad Laboratories (USA). 3T3-L1 preadipocytes and differentiated adipocytes were seeded in 24 well plates.
# Oligo-peptoplexes were prepared by mixing ATS-9R and 2 μg of luciferase plasmid DNA at a charge ratio of 5. R9 and PEI polyplexes were used as controls and prepared at a charge ratio of 5.
# The cell lysates were then scraped, harvested, transferred to 1.5 ml microtubes, and centrifuged for 3 min at 13,000 rpm.
# The luminescence of the cell lysates was measured on a 96-well plate luminometer (Berthold Detection Systems, Germany) with 20-second integration and expressed as relative luminescence units (RLU)/mg of cell protein. Protein concentration was determined by the DC protein assay kit with bovine serum albumin standard.
# Mature adipocytes at day 10 of differentiation were transfected with p-β-Luci by ATS-R9, R9, and PEI at a charge ratio of 5.
# To determine an optimum transfection time point, 3T3-L1 differentiated adipocytes were transfected with luciferase plasmid DNA (p-β-Luci) by ATS-R9 and PEI at a charge ratio of 5 at different days of differentiation.
# Serum protection assay = assay type: in vitro ADME; details: 50% (vol/vol) mouse serum, 2 h at 37° C., optimum charge ratio
# Description: Oligo-peptoplexes were prepared at predetermined charge ratios, mouse serum was added to the polyplexes at a final concentration of 50% (vol/vol), and the samples were incubated for 2 h at 37° C.
# For the decomplexation of DNA from the polyplexes after serum incubation, heparin in phosphate-buffered saline (pH 7.4, 0.5 mol/l NaCl) was added to the samples in the presence of 0.01 mol/l EDTA and incubated for 1 h. The samples were loaded in 0.8% agarose gel.
# Fabp4 gene = assay: fabp4 sh-RNA gene silencing (RT-PCR); assay type: cell-based; details: 3T3-L1 mature adipocytes, 2 μg of fabp4 sh-RNA
# Description: First, 3T3-L1 mature adipocytes were transfected with 2 μg of fabp4 sh-RNA by ATS-R9, PEI, and lipofectamine and gene silencing efficiency was measured by RT-PCR. GAPDH was used as an endogenous control. As a result, the Fabp4 gene silencing efficiency was 70% or more (FIG. 15).
# [8] = system: 3T3-L1 differentiated adipocytes; assay: Internalization of FITC-ATS-R9 into cells (confocal microscopy); assay type: cell-based; details: FITC-conjugated ATS-R9 25 μg/ml, adipocytes at day 10
# Description: as §5, §6, §7, §8
# 3T3-L1 differentiated adipocytes (at day 10) were treated with FITC-conjugated ATS-R9 (25 μg/ml) and incubated for predetermined periods. The plasma membranes of the cells were stained with Cellmask Deep Red and the nuclei were counterstained with DAPI. Blue channel (for DAPI) is depicted as white to show nuclear localization of ATS-R9. Images were captured with a confocal laser scanning microscope. Scale bar: 10 μm.
# 3T3-L1 mature adipocytes = assay: Targeting of rhodamine B-labeled ATS depending on degree of differentiation; assay type: cell-based; details: RhoB-ATS
# Description: (§9) To investigate the location and amount of prohibitin expressed depending on the degree of adipocyte differentiation, two types of adipocytes were treated with rhodamine B-labeled ATS (RhoB-ATS).
# (§10) Binding of ATS to prohibitin was determined by an immunoprecipitation assay (FIG. 5a) and the distributions of prohibitin in 3T3-L1 preadipocytes and mature adipocytes were confirmed through the staining results (FIGS. 5b and 5c).
# 3T3-L1 preadipocytes [9] = assay: as above; assay type: cell-based; details: RhoB-ATS
# Description: as §9, §10
# prohibitin = target: T1, prohibitin (Mus musculus, UniProt P67778); assay: Binding of ATS to prohibitin (immunoprecipitation assay)
# T1 construct: endogenous in cells; host or cells: 3T3-L1 preadipocytes and differentiated mature adipocytes (day 10)
# T1 sequence (P67778 1-272): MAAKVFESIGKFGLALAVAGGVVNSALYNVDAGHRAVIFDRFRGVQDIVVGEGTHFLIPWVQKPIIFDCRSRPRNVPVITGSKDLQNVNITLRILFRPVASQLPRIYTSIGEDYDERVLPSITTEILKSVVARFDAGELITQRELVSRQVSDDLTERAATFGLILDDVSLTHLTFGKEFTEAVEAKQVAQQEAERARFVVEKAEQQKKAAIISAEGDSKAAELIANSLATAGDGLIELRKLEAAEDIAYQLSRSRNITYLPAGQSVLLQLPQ
# Description: as §9, §10
compound,measurement,setting,value
C[C@H](NC(=O)[C@H](CCCNC(=N)N)NC(=O)CNC(=O)CNC(=O)[C@H](CCCCN)NC(=O)[C@@H](N)CS)C(=O)N[C@@H](CCCCN)C(=O)N[C@@H](CC(=O)O)C(=O)N[C@@H](CCCNC(=N)N)C(=O)N[C@@H](CCCNC(=N)N)C(=O)N[C@@H](CCCNC(=N)N)C(=O)N[C@@H](CCCNC(=N)N)C(=O)N[C@@H](CCCNC(=N)N)C(=O)N[C@@H](CCCNC(=N)N)C(=O)N[C@@H](CCCNC(=N)N)C(=O)N[C@@H](CCCNC(=N)N)C(=O)N[C@@H](CCCNC(=N)N)C(=O)N[C@@H](CS)C(=O)O [ATS-R9] (H-CKGGRAKDRRRRRRRRRC-OH; N-terminus and C-terminus assumed),aggregation in fat pad vasculatures,[1],aggregated in the fat pad vasculature
same,"aggregation in the other organs (liver, kidney)",[1],no aggregation was observed
same,binding to fat pad microvessels,[1],bound to the fat pad microvessels
same,toxicity to differentiated adipocytes,[2],non-toxicity
same,viability at 48 h,[3],≥ 90%
same,migration to the nuclei observed after,3T3-L1 preadipocytes [4],> 48 h
same,size of condensed DNA complex,"[5]; ATS-R9 bound to DNA, neutral conditions",≤ 200 nm
same,zeta potential,[5]; charge ratio of ≧1 (description),positive
same,gene delivery efficacy as differentiation into obese adipocytes proceeded,obese adipocytes; before and after adipocyte differentiation,increased
same,gene delivery efficacy to obese adipocytes,"obese adipocytes; luciferase gene, PEI and lipofectamine as controls",superior to those of the other delivery systems PEI and lipofectamine
same,DNA condensation (no DNA migration),[6],complete DNA condensation
same,internalization into in vivo adipose tissues,"C57BL/6J obese mice; tail vein injection, multiphoton confocal microscopy",penetrated the blood vessels and was gradually internalized into adipocytes
same,transfection efficiency (luciferase gene expression),[7],higher transfection efficiency and gene expression efficiency than PEI and R9
same,DNA degradation in serum,Serum protection assay,protected DNA from degradation
same,Fabp4 gene silencing efficiency,Fabp4 gene,≥ 70%
same,strong fluorescence signals / steady state maintained,[8],48 h
same,time to reach the cytoplasm,[8],≤ 15 min
same,time to reach the nuclei,[8],≤ 1 h
"CKGGRAKDC (optionally rhodamine B labeled; Synthetic peptide adipocyte targeting sequence) [ATS, used free or rhodamine B-labeled]",targeting efficiency / delivery to obese cells after differentiation,3T3-L1 mature adipocytes,effectively delivered; also recorded: very high
same,targeting efficiency to adipocytes before differentiation,3T3-L1 preadipocytes [9],not significantly high
same,ability to bind to prohibitin,prohibitin,high ability to bind to prohibitin
"CRRRRRRRRRC (C[dR][dR][dR][dR][dR][dR][dR][dR][dR]C; cysteine pairing not given here) [R9, reference compound]",aggregation in fat pad vasculatures,[1],aggregation was not observed in the fat vasculatures
same,binding to fat pad microvessels,[1],no binding
"FITC-ATS-R9: FITC conjugated ATS-R9 (CKGGRAKDRRRRRRRRRC), SEQ ID NO: 2 (not fully specified (N-terminus); cysteine pairing not given here; also: FITC conjugated, site not given here)",in vivo RFP gene expression,C57BL/6J obese mice; RFP expressing plasmid concentrated by FITC-ATS-R9,clearly confirmed
same,adipose tissue homing (immunofluorescence assay),"C57BL/6J obese mice; anti-FITC antibody, Cy3-ExtrAvidin",confirms the induction
